Laboratory results taken from patent US9284325B2, “Spectinamides as anti-tuberculosis agents” (UNIVERSITY OF TENNESSEE RESEARCH FOUNDATION, priority 2009, dated 2016).
Where a name gives a salt, the structure may show the parent alone.

What was measured:
[1] = system: Strep. pyogenes ATCC 700294; test: MIC determination by microbroth dilution; assay type: cell-based, Streptococcus pyogenes; conditions: Streptococcus pyogenes, ATCC700294, read-out: MIC S. pyogenes
E. coli K12 = test: MIC determination by microbroth dilution; assay type: cell-based, Escherichia coli; conditions: Escherichia coli, K12
Vero epithelial cells = conditions: African green monkey
[2] = system: Proteus vulgaris ATCC 33420; test: MIC determination by microbroth dilution; assay type: cell-based; conditions: ATCC33420
B. anthracis Sterne 34F2 = test: microbe, parasite or virus in culture; assay type: cell-based, Bacillus anthracis; conditions: Bacillus anthracis, STERNE34F2, read-out: MIC B. anthracis 34F2
[3] = system: Klebsiella pneumoniae ATCC 33495; test: MIC determination by microbroth dilution; assay type: cell-based; conditions: ATCC33495
E. faecalis ATCC 33186 = test: MIC determination by microbroth dilution; assay type: cell-based, Enterococcus faecalis; conditions: Enterococcus faecalis, ATCC33186
P. aeruginosa PAO1 = test: MIC determination by microbroth dilution; assay type: cell-based, Pseudomonas aeruginosa; conditions: Pseudomonas aeruginosa
[4] = system: Acinetobacter baumannii ATCC 19606; test: MIC determination by microbroth dilution; assay type: cell-based; conditions: ATCC19606
E. coli K12 ΔtolC = test: microbe, parasite or virus in culture; assay type: cell-based; conditions: Escherichia coli, read-out: MIC E. coli K12 ΔtolC
[5] = system: Proteus mirabilis ATCC 25933; test: MIC determination by microbroth dilution; assay type: cell-based; conditions: ATCC25933
[6] = system: S. aureus 8325 or strain ATCC 29213; test: MIC determination by microbroth dilution; assay type: cell-based, Staphylococcus aureus; conditions: Staphylococcus aureus, ATCC29213; S. aureus 8325 or strain ATCC 29213 (for 1471-1544)
[7] = assay type: in vitro ADME; conditions: rat, microsomes, 1.5 h, 2 µM, pH 7.4
Procedure: In Vitro Microsomal Metabolic Stability: In vitro microsomal metabolic stability of the compounds was assessed using pooled rat liver microsomal preparations (Cellzdirect, Austin, Tex., United States of America). Reactions were started by adding 25 μL of microsomal protein solution (10 mg/mL) to 25 μL of test compound (20 μM) and 200 μL of NADPH regenerating solution (1.3 mM NADP+, 3.3 mM glucose-6-phosphate, 3.3 mM MgCl2 and 1 unit/mL glucose-6-phosphate dehydrogenase in pH 7.4 phosphate buffer solution). The reaction mixture was incubated at 37° C. and samples were taken at 0, 5, 10, 15, 30, 45, 60 and 90 minutes respectively. A reaction mixture containing above mentioned composition but instead using deactivated microsomes was used for control. All the samples were analyzed using LC-MS/MS assay. Disappearance of the parent compound was monitored during the incubation period. The percentage of parent compound remaining intact was estimated by comparing analyte concentrations before and after incubation.
(§1) Following intravenous administration of 10 mg/kg in rats, 1329 follows a bi-exponential concentration/time profile with distinct distribution and elimination phases. Plasma protein binding of the compound is approximately 30%. 1329 is widely distributed with a steady state volume of distribution of 4.3 L/kg. It has a mean residence time in the body of approximately 5.3 hours.

in vitro [8] = assay type: in vitro ADME; conditions: rat, plasma, pH 7.4
Procedure: Protein Binding: Protein binding of the compounds was determined using equilibrium dialysis. Biologically relevant concentrations of test compound were prepared (low and high) in rat plasma. 200 μL of the plasma sample was placed in the central chamber and 350 μL of blank isotonic phosphate buffer, pH 7.4 was added to the peripheral chamber of a dialysis device (MW cutoff 6000-8000 D, RED® device, Pierce Biotechnology Inc, Rockford, Ill., United States of America). The chambers were covered with a seal and incubated at 37° C. for four hours on a shaker set at 100 rpm. At the end of incubation, the volumes of plasma and recipient buffer were measured to identify and account for volume shift, if any. Aliquots of plasma and buffer were used to determine the drug concentration using an LC-MS/MS assay. The free fraction of the drug was calculated as ratio of the concentrations in the buffer and in plasma.
as §1

in vitro [9] = conditions: African green monkey
[10] = system: Burkholderia cepacia ATCC 25416; test: MIC determination by microbroth dilution; assay type: cell-based; conditions: ATCC25416, read-out: MIC B. cepcia
[11] = system: Strep. pneumoniae DAW27 or strain R6; test: MIC determination by microbroth dilution; assay type: cell-based, Streptococcus pneumoniae; conditions: Streptococcus pneumoniae; Strep. pneumoniae DAW27 or strain R6 (for 1443-1544); read-out: MIC S. pneumoniae
M. tuberculosis H37Rv = test: MIC determination by microbroth dilution, anti-tuberculosis activity; assay type: cell-based, Mycobacterium tuberculosis

CN[C@@H]1[C@H](O)[C@H](NC)C2O[C@]3(O)C(OC2[C@H]1O)O[C@H](C)C[C@H]3NC(=O)Cc1ccccn1 (stereo partly drawn) [Compound 1329, 3′-Dihydro-3′-deoxy-4(R)-(pyridin-2yl)acetylamino spectinomycin Dihydrochloride]
MIC [1]: 50 µg/mL
MIC (E. coli K12): 200 µg/mL
therapeutic index (IC50 divided by the MIC) (Vero epithelial cells): 5456
MIC [2]: > 200 µg/mL
MIC (B. anthracis Sterne 34F2): 50 µg/mL
MIC [3]: > 200 µg/mL
MIC (E. faecalis ATCC 33186): 100 µg/mL
MIC (P. aeruginosa PAO1): 100 µg/mL
MIC [4]: > 200 µg/mL
MIC (E. coli K12 ΔtolC): 50 µg/mL
MIC [5]: > 200 µg/mL
MIC [6]: 50 µg/mL
parent drug remaining intact [7]: 95%
fraction unbound at 4 h (in vitro [8]): ~0.7
IC50 at 72 h (in vitro [9]): 2180 µg/mL
MIC [10]: > 200 µg/mL
MIC [11]: 6.25 µg/mL
Activity (MIC) of 1329 compared to streptomycin (M. tuberculosis H37Rv): 0.8-1.6
MIC (M. tuberculosis H37Rv; Mycobacterium tuberculosis, H37RV, 168 h, read-out: MIC): 0.8 µg/mL
